Measurements published in patent US20110184188A1, “Insecticidal Benzenedicarboxamide Derivative” (priority 2008, published 2011).

Assay: logP(acid) by reverse phase (C18) chromatography at pH 2.3
Type: physicochemical
Settings: reverse phase (C18) chromatography at pH 2.3

| Structure (SMILES) | logP (acid) | Physical property logP (acid) |
| --- | --- | --- |
| CSC[C@H](C)NC(=O)c1c(Cl)cccc1C(=O)Nc1ccc(Cn2c(C(F)(F)F)nc(Cl)c2Cl)nc1C [13-502] | 3.50 |  |
| CSCC(C)NC(=O)c1c(Cl)cccc1C(=O)Nc1ccc(Cn2nc(C(F)(F)C(F)F)nc2C(F)(F)C(F)F)nc1C (stereo not shown) [14-31] |  | logP (acid) 3.33 |
| CCSc1nc(C(F)(F)F)nn1Cc1ccc(NC(=O)c2cccc(Cl)c2C(=O)NC(C)CSC)c(C)c1 (stereo not shown) [14-38] |  | logP (acid) 4.13 |
| CSCC(C)NC(=O)c1c(Cl)cccc1C(=O)Nc1ccc(Cn2nc(C(F)(F)F)nc2SC(C)C)cc1C (stereo not shown) [14-39] |  | logP (acid) 4.13 |
| CCCCCSc1nc(C(F)(F)F)nn1Cc1ccc(NC(=O)c2cccc(Cl)c2C(=O)NC(C)CSC)c(C)c1 (stereo not shown) [14-40] |  | logP (acid) 4.91 |
| Cc1nc(Cn2nc(C(F)(F)C(F)(F)F)nc2C(F)(F)F)ccc1NC(=O)c1cccc(Cl)c1C(=O)NC(C)C[S+](C)[O-] (stereo not shown) [14-60] |  | logP (acid) 2.59 |

Same assay, conditions: reverse phase (C18) chromatography, pH 2.3

| Structure (SMILES) | logP (acid) |
| --- | --- |
| CCN(CC)CC(C)NC(=O)c1cccc(Cl)c1C(=O)Nc1ccc(Cn2nc(C(F)(F)F)cc2C(F)(F)F)nc1C (stereo not shown) [13-285] | logP (acid) 2.53 |
| CSC[C@H](C)NC(=O)c1c(C(=O)Nc2ccc(Cn3nc(C(F)(F)F)cc3C(F)(F)F)nc2C)cccc1S(C)(=O)=O [13-286] | logP (acid) 3.21 |
| Cc1nc(Cn2nc(C(F)(F)F)cc2C(F)(F)F)ccc1NC(=O)c1cccc(S(=O)(=O)N(C)C)c1C(=O)N[C@@H](C)CS(C)(=O)=O [13-289] | logP (acid) 2.75 |
| CSC[C@H](C)NC(=O)c1c(C(=O)Nc2ccc(Cn3cc(C(F)(F)C(F)(F)F)c(C(F)(F)C(F)(F)F)n3)nc2C)cccc1S(C)(=O)=O [13-290] | logP (acid) 3.80 |
| CSC[C@H](C)NC(=O)c1c(SC)cccc1C(=O)Nc1ccc(Cn2nc(C(F)(F)C(F)(F)F)c(C(F)(F)F)c2F)cc1C [13-308] | logP (acid) 4.43 |
| CSC[C@H](C)NC(=O)c1c(SC)cccc1C(=O)Nc1ccc(Cn2nc(C(F)(F)C(F)(F)F)cc2C(F)(F)F)cc1C [13-310] | logP (acid) 4.74 |
| CSC[C@H](C)NC(=O)c1c(C(=O)Nc2ccc(Cn3nc(C(F)(F)C(F)(F)F)cc3C(F)(F)F)cc2C)cccc1S(C)(=O)=O [13-311] | logP (acid) 4.20 |
| CSC[C@H](C)NC(=O)c1c(SC)cccc1C(=O)Nc1ccc(Cn2nc(C(F)(F)C(F)(F)F)cc2C(=O)C(F)(F)F)cc1C [13-325] | logP (acid) 3.50 |
| CSC[C@H](C)NC(=O)c1c(SC)cccc1C(=O)Nc1ccc(Cn2nc(C(F)(F)C(F)(F)F)cc2C(F)(F)C(F)(F)F)nc1C [13-342] | logP (acid) 4.45 |
| CSc1cccc(C(=O)Nc2ccc(Cn3nc(C(F)(F)C(F)(F)F)cc3C(F)(F)F)nc2C)c1C(=O)N[C@@H](C)C[S+](C)[O-] (stereo partly shown) [13-343] | logP (acid) 2.78 |
| CCS(=O)(=O)c1cccc(C(=O)Nc2ccc(Cn3nc(C(F)(F)F)cc3C(F)(F)F)cc2C)c1C(=O)N[C@@H](C)CSC [13-346] | logP (acid) 3.74 |
| Cc1cc(Cn2nc(C(F)(F)F)cc2C(F)(F)F)ccc1NC(=O)c1cccc(S(=O)(=O)N(C)C)c1C(=O)N[C@@H](C)CS(C)(=O)=O [13-349] | logP (acid) 3.07 |
| CSC[C@H](C)NC(=O)c1c(Cl)cccc1C(=O)Nc1ccc(N(C)c2c(C(F)(F)F)c(C(F)(F)C(F)(F)F)nn2C)nc1C [13-353] | logP (acid) 4.19 |
| Cc1nc(N(C)c2c(C(F)(F)F)c(C(F)(F)C(F)(F)F)nn2C)ccc1NC(=O)c1cccc(Cl)c1C(=O)N[C@@H](C)C[S+](C)[O-] (stereo partly shown) [13-354] | logP (acid) 2.91 |
| Cc1nc(Cn2c(C(F)(F)F)nc(Cl)c2Cl)ccc1NC(=O)c1cccc(Cl)c1C(=O)N[C@@H](C)C[S+](C)[O-] (stereo partly shown) [13-363] | logP (acid) 2.17 |
| Cc1nc(Cn2c(C(F)(F)F)nc(Cl)c2Cl)ccc1NC(=O)c1cccc(Cl)c1C(=O)N[C@@H](C)CS(C)(=O)=O [13-364] | logP (acid) 2.59 |
| CSC[C@H](C)NC(=O)c1c(Cl)cccc1C(=O)Nc1cnc(Cn2nc(C(F)(F)F)nc2C(F)(F)F)cc1C [14-268] | logP (acid) 3.26 |
| CSC[C@H](C)NC(=O)c1c(Br)cccc1C(=O)Nc1cnc(Cn2nc(C(F)(F)F)nc2C(F)(F)F)cc1C [14-271] | logP (acid) 3.37 |
| CSC[C@H](C)NC(=O)c1c(I)cccc1C(=O)Nc1cnc(Cn2nc(C(F)(F)F)nc2C(F)(F)F)cc1C [14-274] | logP (acid) 3.44 |
| CC(=O)CC(C)NC(=O)c1c(Cl)cccc1C(=O)Nc1ccc(Cn2nc(C(F)(F)C(F)(F)F)nc2C(F)(F)F)cc1C (stereo not shown) [14-295] | logP (acid) 3.56 |
| CC(=O)CC(C)NC(=O)c1c(Br)cccc1C(=O)Nc1ccc(Cn2nc(C(F)(F)C(F)(F)F)nc2C(F)(F)F)cc1C (stereo not shown) [14-296] | logP (acid) 3.46 |
| CC(=O)CC(C)NC(=O)c1c(I)cccc1C(=O)Nc1ccc(Cn2nc(C(F)(F)C(F)(F)F)nc2C(F)(F)F)cc1C (stereo not shown) [14-297] | logP (acid) 3.70 |
| CC(=O)OC[C@H](C)NC(=O)c1c(Cl)cccc1C(=O)Nc1ccc(Cn2nc(C(F)(F)F)nc2C(F)(F)F)cc1C [14-298] | logP (acid) 3.08 |
| CSC[C@H](C)NC(=O)c1c(Br)cncc1C(=O)Nc1ccc(Cn2nc(C(F)(F)C(F)(F)F)nc2C(F)(F)F)cc1C [14-300] | logP (acid) 3.84 |
| CSC[C@H](C)NC(=O)c1c(Br)cccc1C(=O)Nc1ccc(Cn2cnc(C(F)(F)C(F)F)n2)nc1C [14-302] | logP (acid) 2.48 |
| CSC[C@H](C)NC(=O)c1c(Cl)cccc1C(=O)Nc1ccc(Cn2nnc(-c3ccc(C(F)(F)F)cc3)n2)cc1C [14-305] | logP (acid) 4.08 |

| Structure (SMILES) | logP (acid) |
| --- | --- |
| CSC[C@H](C)NC(=O)c1c(Cl)cccc1C(=O)Nc1ccc(Cn2nnc(C(F)(F)F)n2)nc1C [14-306] | logP (acid) 2.91 |
| CSC[C@H](C)NC(=O)c1c(Cl)cccc1C(=O)Nc1ccc(Cn2nnc(C(F)(F)C(F)(F)C(F)(F)F)n2)nc1C [14-307] | logP (acid) 3.71 |
| CSC[C@H](C)NC(=O)c1c(Cl)cccc1C(=O)Nc1ccc(Cn2cnc(C(F)(F)C(F)F)n2)nc1C [14-309] | logP (acid) 2.38 |
| CSC[C@H](C)NC(=O)c1c(Cl)cccc1C(=O)Nc1ccc(Cn2cnc(C(F)(F)C(F)(F)C(F)(F)F)n2)nc1C [14-310] | logP (acid) 3.16 |
| CSC[C@H](C)NC(=O)c1c(Cl)cccc1C(=O)Nc1ccc(Cn2nc(C(F)(F)C(F)F)nc2C(F)(F)F)nc1C [14-311] | logP (acid) 3.45 |
| Cc1nc(Cn2nc(C(F)(F)F)n(C)c2=O)ccc1NC(=O)c1cccc(Cl)c1C(=O)N[C@@H](C)C[S+](C)[O-] (stereo partly shown) [14-321] | logP (acid) 1.37 |
| Cc1nc(Cn2nc(C(F)(F)F)n(C)c2=O)ccc1NC(=O)c1cccc(Cl)c1C(=O)N[C@@H](C)CS(C)(=O)=O [14-322] | logP (acid) 1.60 |
| CSC[C@H](C)NC(=O)c1c(Cl)cccc1C(=O)Nc1ccc(Cn2nc(C(F)(F)F)n(C3CC3)c2=O)nc1C [14-323] | logP (acid) 2.57 |
| CSC[C@H](C)NC(=O)c1c(Cl)cccc1C(=O)Nc1ccc(Cn2nc(C(F)(F)C(F)(F)F)n(C(F)F)c2=O)cc1C [14-328] | logP (acid) 3.68 |
| Cc1cc(Cn2nc(C(F)(F)C(F)(F)F)n(C(F)F)c2=O)ccc1NC(=O)c1cccc(Cl)c1C(=O)N[C@@H](C)C[S+](C)[O-] (stereo partly shown) [14-329] | logP (acid) 2.5 |
| Cc1cc(Cn2nc(C(F)(F)C(F)(F)F)n(C(F)F)c2=O)ccc1NC(=O)c1cccc(Cl)c1C(=O)N[C@@H](C)CS(C)(=O)=O [14-330] | logP (acid) 2.85 |
| CSC[C@H](C)NC(=O)c1c(Br)cccc1C(=O)Nc1ccc(Cn2nc(C(F)(F)C(F)(F)F)n(C(F)F)c2=O)cc1C [14-331] | logP (acid) 3.75 |
| CSC[C@H](C)NC(=O)c1c(I)cccc1C(=O)Nc1ccc(Cn2nc(C(F)(F)C(F)(F)F)n(C(F)F)c2=O)cc1C [14-334] | logP (acid) 3.11 |
| Cc1cc(Cn2nnc(-c3ccc(C(F)(F)F)cc3)n2)ccc1NC(=O)c1cccc(Br)c1C(=O)N[C@@H](C)CS(C)(=O)=O [14-348] | logP (acid) 3.22 |
| Cc1cc(Cn2nnc(-c3ccc(C(F)(F)F)cc3)n2)ccc1NC(=O)c1cccc(Cl)c1C(=O)N[C@@H](C)CS(C)(=O)=O [14-349] | logP (acid) 3.23 |
| CSC[C@H](C)NC(=O)c1c(Cl)cccc1C(=O)Nc1ccc(Cn2nc(C(F)(F)F)nc2NC(=O)C(F)(F)F)cc1C [14-353] | logP (acid) 3.11 |
| Cc1cc(Cn2nc(C(F)(F)C(F)(F)F)nc2C(F)(F)F)ccc1NC(=O)c1cccc(Cl)c1C(=O)NC(C)CC1(C)OCCCO1 (stereo not shown) [14-357] | logP (acid) 3.79 |
| Cc1cc(Cn2nc(C(F)(F)C(F)(F)F)nc2C(F)(F)F)ccc1NC(=O)c1cccc(I)c1C(=O)NC(C)CC1(C)OCCCO1 (stereo not shown) [14-358] | logP (acid) 3.95 |
| Cc1cc(Cn2nc(C(F)(F)C(F)(F)F)nc2C(F)(F)F)ccc1NC(=O)c1cccc(Br)c1C(=O)NC(C)CC1(C)OCCCO1 (stereo not shown) [14-359] | logP (acid) 4.06 |
| Cc1cc(Cn2nc(C(F)(F)C(F)(F)F)nc2C(F)(F)F)ccc1NC(=O)c1cccc(Cl)c1C(=O)NC(C)CC1(C)OCCO1 (stereo not shown) [14-360] | logP (acid) 3.86 |
| Cc1cc(Cn2nc(C(F)(F)C(F)(F)F)nc2C(F)(F)F)ccc1NC(=O)c1cccc(I)c1C(=O)NC(C)CC1(C)OCCO1 (stereo not shown) [14-361] | logP (acid) 3.95 |
| Cc1cc(Cn2nc(C(F)(F)C(F)(F)F)nc2C(F)(F)F)ccc1NC(=O)c1cccc(Br)c1C(=O)NC(C)CC1(C)OCCO1 (stereo not shown) [14-362] | logP (acid) 3.92 |
| CO/N=C(\C)CC(C)NC(=O)c1c(Br)cccc1C(=O)Nc1ccc(Cn2nc(C(F)(F)C(F)(F)F)nc2C(F)(F)F)cc1C (stereo not shown) [14-363] | logP (acid) 4.03 |
| CSC[C@H](C)NC(=O)c1c(C(=O)Nc2ccc(Cn3nc(C(F)(F)F)nc3C(F)(F)F)nc2C)cccc1S(C)(=O)=O [14-364] | logP (acid) 2.98 |
| CSC[C@H](C)NC(=O)c1c(C(=O)Nc2ccc(Cn3nc(C(F)(F)F)nc3C(F)(F)F)nc2C)cccc1S(=O)(=O)N(C)C [14-365] | logP (acid) 3.30 |
| Cc1nc(Cn2nc(C(F)(F)F)nc2C(F)(F)F)ccc1NC(=O)c1cccc(S(C)(=O)=O)c1C(=O)N[C@@H](C)C[S+](C)[O-] (stereo partly shown) [14-366] | logP (acid) 2.07 |
